# pIC50: −log10 of the molar value.
# What was measured:
# [1] = tested on: HCT116 cells and MKN45 cells; assay: Test C: measurement of cell proliferation by 14C-thymidine pulse; type: cell-based; details: 14C-thymidine incorporation, 96 h of treatment; cell line not given
# Procedure: The cells are seeded into Cytostar 96-well plates in 180 μl for 4 hours at 37° C. and 5% CO2: HCT116 cells in a proportion of 2500 cells per well in DMEM medium+10% foetal calf serum+1% L-glutamine, and MKN45 cells in a proportion of 7500 cells per well in RPMI medium+10% foetal calf serum+1% L-glutamine. After these 4 hours of incubation, the products are added in 10 μl as a […] concentrated solution according to the dilution method mentioned for the ELISA. The products are tested at 10 concentrations in duplicate from 10 000 nM to 0.3 nM with an increment of 3.
# After treatment for 72 h, 10 μl of ^14C-thymidine at 10 μCi/ml are added so as to obtain 0.1 μCi per well. The ^14C-thymidine incorporation is measured on a Micro-Beta machine (Perkin-Elmer) after 24 hours of pulse and 96 h of treatment.
# All the steps of the assay are automated on BIOMEK 2000 or TECAN stations.
# MET [2] = target: T1, MET (Homo sapiens, UniProt P08581); assay: Test B: inhibition of the autophosphorylation of MET, ELISA technique (pppY1230,1234,1235) in MKN45 cells; type: cell-based; design: endogenous in cells; host or cells: MKN45 cells; details: 1 h treatment, phosphoMET ELISA
# Procedure: B) Test B: Inhibition of the autophosphorylation of MET; ELISA technique (pppY1230,1234,1235) a) Cell lysates: MKN45 cells are seeded into 96-well plates (cell coat BD polylysine) at 20 000 cells/well in 200 μl in RPMI medium+10% FCS+1% L-glutamine. They are left to adhere for 24 hours in an incubator.
# The cells are treated the day after seeding with the products at 6 concentrations, in duplicate, for 1 h. At least 3 control wells are treated with the same final amount of DMSO.
# Product dilution: Stock at 10 mM in pure DMSO—range from 10 mM to 30 μM with an increment of 3 in pure DMSO—intermediate dilutions to 1/50 in culture medium and then removal of 10 μl added directly to the cells (200 μl): final range of 10 000 to 30 nM.
# At the end of the incubation, the supernatant is carefully removed and rinsing is performed with 200 μl of PBS. Next, 100 μl of lysis buffer are placed directly in the wells on ice and incubated at 4° C. for 30 minutes. Lysis buffer: 10 mM Tris HCl, pH 7.4, 100 mM NaCl, 1 mM EDTA, 1 mM EGTA, 1% Triton X-100, 10% glycerol, 0.1% SDS, 0.5% deoxycholate, 20 mM NaF, 2 mM Na3VO4, 1 mM PMSF and cocktail of antiproteases.
# The 100 μl of lysates are transferred into a V-bottomed polypropylene plate and the ELISA is performed immediately, or the plate is frozen at −80° C.
# 70 μl of kit dilution buffer+30 μL of cell lysate, or 30 μl of lysis buffer for the blanks, are added to each well of the kit plate. Incubation is carried out for 2 h with gentle agitation at ambient temperature.
# The wells are rinsed 4 times with 400 μl of kit washing buffer. Incubation is carried out with 100 μl of anti-phospho MET antibody for 1 hour at ambient temperature.
# The wells are rinsed 4 times with 400 μl of kit washing buffer. Incubation is carried out with 100 μl of anti-rabbit HRP antibody for 30 minutes at ambient temperature (except for the wells of chromogen alone).
# The wells are rinsed 4 times with 400 μl of kit washing buffer. 100 μL of chromogen are introduced and incubation is carried out for 30 minutes in the dark at ambient temperature.
# The reaction is stopped with 100 μl of stop solution. The plate is read without delay at […], 0.1 second on a Wallac Victor plate reader.
# Target sequence in this assay (P08581 25-1390): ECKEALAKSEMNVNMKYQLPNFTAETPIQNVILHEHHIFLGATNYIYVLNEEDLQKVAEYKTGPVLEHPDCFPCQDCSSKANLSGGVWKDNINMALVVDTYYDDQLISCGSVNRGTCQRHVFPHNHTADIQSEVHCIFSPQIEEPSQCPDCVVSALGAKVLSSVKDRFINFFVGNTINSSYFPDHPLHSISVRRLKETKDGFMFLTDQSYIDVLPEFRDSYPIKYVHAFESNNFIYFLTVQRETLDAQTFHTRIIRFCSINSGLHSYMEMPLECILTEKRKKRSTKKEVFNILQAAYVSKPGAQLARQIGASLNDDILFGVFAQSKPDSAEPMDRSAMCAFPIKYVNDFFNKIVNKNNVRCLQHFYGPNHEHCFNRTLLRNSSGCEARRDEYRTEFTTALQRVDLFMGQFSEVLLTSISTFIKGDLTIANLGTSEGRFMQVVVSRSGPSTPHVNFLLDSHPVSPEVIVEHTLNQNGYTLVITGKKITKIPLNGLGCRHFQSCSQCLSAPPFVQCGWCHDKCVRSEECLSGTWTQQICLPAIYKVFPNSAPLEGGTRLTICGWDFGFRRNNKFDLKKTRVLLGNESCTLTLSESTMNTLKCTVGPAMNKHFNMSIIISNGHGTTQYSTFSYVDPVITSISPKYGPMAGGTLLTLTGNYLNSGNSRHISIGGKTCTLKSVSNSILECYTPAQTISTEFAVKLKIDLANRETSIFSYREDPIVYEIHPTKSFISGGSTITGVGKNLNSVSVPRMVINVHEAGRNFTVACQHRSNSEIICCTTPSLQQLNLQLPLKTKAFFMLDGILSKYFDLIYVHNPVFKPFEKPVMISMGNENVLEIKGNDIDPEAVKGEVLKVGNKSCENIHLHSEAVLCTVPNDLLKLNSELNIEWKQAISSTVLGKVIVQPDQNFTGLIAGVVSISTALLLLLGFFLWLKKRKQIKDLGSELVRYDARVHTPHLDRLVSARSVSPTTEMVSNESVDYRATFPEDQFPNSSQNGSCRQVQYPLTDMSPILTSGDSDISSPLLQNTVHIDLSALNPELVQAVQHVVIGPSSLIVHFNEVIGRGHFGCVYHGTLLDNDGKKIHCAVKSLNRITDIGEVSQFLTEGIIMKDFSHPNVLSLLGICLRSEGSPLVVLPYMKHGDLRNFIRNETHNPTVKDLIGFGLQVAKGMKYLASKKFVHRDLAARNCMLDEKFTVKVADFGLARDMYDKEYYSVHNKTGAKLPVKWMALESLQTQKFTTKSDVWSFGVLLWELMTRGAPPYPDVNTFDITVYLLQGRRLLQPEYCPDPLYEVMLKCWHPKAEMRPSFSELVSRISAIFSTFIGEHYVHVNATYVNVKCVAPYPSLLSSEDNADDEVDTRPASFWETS
# MET [3] = target: T1, MET; assay: Test A: HTRF MET assay in 96-well format; type: biochemical; design: The His-Tev-MET (956-1390) recombinant DNA in pFastBac (Invitrogen) is transfected into insect cells; His-Tev (histidine tag with TEV cleavage site) (N, cleaved yes); made in house; host or cells: SF21 insect cells (baculovirus, pFastBac); details: MET 5 nM, 10 μM ATP, poly-(GAT)
# Procedure: The His-Tev-MET (956-1390) recombinant DNA in pFastBac (Invitrogen) is transfected into insect cells and, after several viral amplification steps, the final baculovirus stock is tested for the expression of the protein of interest.
# After infection for 72 h at 27° C. with the recombinant virus, SF21 cell cultures are harvested by centrifugation and the cell pellets are stored at −80° C.
# The cell pellets are resuspended in the lysis buffer (buffer A [50 mM HEPES, pH 7.5, 250 mM NaCl, 10% glycerol, 1 mM TECP]; +cocktail of protease inhibitors, Roche Diagnostics, without EDTA, ref 1873580), stirred at 4° C. until the mixture is homogeneous, and then lysed mechanically using a “Dounce” type apparatus.
# After centrifugation, the lysis supernatant is incubated for 2 h at 4° C. with nickel chelate resin (His-Trap 6 Fast Flow™, GE HealthCare). After washing with 20 volumes of buffer A, the suspension is packed into a column, and the proteins are eluted with a gradient of buffer B (buffer A+290 mM imidazole).
# The fractions containing the protein of interest, for the purpose of electrophoretic analysis (SDS PAGE), are combined, concentrated by ultrafiltration (10 kDa cut-off) and injected onto an exclusion chromatography column (Superdex™ 200, GE HealthCare) equilibrated in buffer A.
# After enzymatic cleavage of the histidine tag, the protein is reinjected onto a new IMAC nickel chelate chromatography column (His-Trap 6 Fast Flow™, GE HealthCare) equilibrated in buffer A. The fractions eluted with a gradient of buffer B and containing the protein of interest after electrophoresis (SDS PAGE) are finally combined and stored at −80° C.
# For the production of autophosphorylated protein, the previous fractions are incubated for 1 h at ambient temperature after the addition of 2 mM ATP, 2 mM MgCl2 and 4 mM Na3VO4. After the reaction has been stopped with 5 mM of EDTA, the reaction mixture is injected onto a HiPrep desalifying column (GE HealthCare) pre-equilibrated in buffer A+4 mM Na3VO4, and the fractions containing the protein of interest (SDS PAGE analysis) are combined and stored at −80° C. The degree of phosphorylation is verified by mass spectrometry (LC-MS) and by peptide mapping.
# MET at a final concentration of 5 nM is incubated in a final volume of 50 μl of enzymatic reaction in the presence of the test molecule (for a final concentration range of from 0.17 nM to 10 μM, 3% DMSO final concentration) in 10 mM MOPS buffer, pH 7.4, 1 mM DTT, 0.01% Tween 20. The reaction is initiated with the substrate solution to obtain final concentrations of 1 μg/ml poly-(GAT), 10 μM ATP and 5 mM MgCl2. After incubation for 10 min at ambient temperature, the reaction is stopped with a 30 μl mix so as to obtain a final solution of 50 mM Hepes, pH 7.5, 500 mM potassium fluoride, 0.1% BSA and 133 mM EDTA in the presence of 80 ng of streptavidin 61SAXLB Cis-Bio Int. and 18 ng of anti-phosphotyrosine Mab PT66-Europium Cryptate per well. After incubation for 2 hours at ambient temperature, the reading is taken at 2 wavelengths, 620 nm and 665 nm, on a reader for the TRACE/HTRF technique, and the % inhibition is calculated from the 665/620 ratios.
# Target sequence in this assay (P08581 956-1390): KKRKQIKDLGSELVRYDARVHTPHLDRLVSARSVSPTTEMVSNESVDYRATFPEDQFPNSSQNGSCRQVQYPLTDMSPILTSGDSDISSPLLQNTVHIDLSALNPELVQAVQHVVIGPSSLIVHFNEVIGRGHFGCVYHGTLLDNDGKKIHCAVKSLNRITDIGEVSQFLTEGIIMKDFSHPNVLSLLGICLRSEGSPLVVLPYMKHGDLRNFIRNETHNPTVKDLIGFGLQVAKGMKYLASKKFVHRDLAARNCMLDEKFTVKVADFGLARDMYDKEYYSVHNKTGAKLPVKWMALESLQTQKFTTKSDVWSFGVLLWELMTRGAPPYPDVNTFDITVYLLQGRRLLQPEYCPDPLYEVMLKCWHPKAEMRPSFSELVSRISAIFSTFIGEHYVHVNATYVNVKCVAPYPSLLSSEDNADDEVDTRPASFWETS
pIC50 [1],melting point [°C],pIC50 (MET [2]),pIC50 (MET [3]),Compound
> 6.00,> 260,> 7.00,> 7.00,"O=C(Nc1nc2ccc(Sc3nnc4ccc(-c5cn[nH]c5)cn34)cc2s1)C1CC1 [Example 11, N-(6-{[6-(1H-pyrazol-4-yl)[1,2,4]triazolo[4,3-a]pyridin-3-yl]-sulphanyl}-1,3-benzothiazol-2-yl)cyclopropanecarboxamide]"
> 6.00,191,> 7.00,> 7.00,"Cc1ccc(-c2ccc3nnc(Sc4ccc5nc(NC(=O)C6CC6)sc5c4)n3c2)cc1F [Example 12, N-(6-{[6-((3-fluoro-4-methyl)phenyl)[1,2,4]triazolo[4,3-a]pyridin-3-yl]sulphanyl}-1,3-benzothiazol-2-yl)cyclopropanecarboxamide]"
> 6.00,> 260,> 7.00,> 7.00,"O=C(Nc1nc2ccc(Sc3nnc4ccc(-c5cccc(F)c5)cn34)cc2s1)C1CC1 [Example 13, N-(6-{[6-(3-fluorophenyl)[1,2,4]triazolo[4,3-a]pyridin-3-yl]sulphanyl}-1,3-benzothiazol-2-yl)cyclopropanecarboxamide]"

# From patent US20110263594A1, “NOVEL TRIAZOLO(4,3-A)PYRIDINE DERIVATIVES, PROCESS FOR THE PREPARATION THEREOF, USE THEREOF AS MEDICAMENTS, PHARMACEUTICAL COMPOSITIONS AND NOVEL USE, IN PARTICULAR AS MET INHIBITORS” (SANOFI-AVENTIS, priority 2008, published 2011)
